# Data reported in EP4613859A1, “TLR SIGNALING INHIBITORY PEPTIDE AND COMPOSITION INCLUDING SAME FOR PREVENTION OR TREATMENT OF INFLAMMATORY DISEASES” (Korea Institute of Science and Technology, priority 2022, dated 2025).
# Assays:
# human MYD88 = test: Phage display screening of TIR domain-derived peptide library against immobilized MyD88, NGS analysis after four rounds; assay type: binding; settings: for NGS count: phages remaining after fourth round
# Procedure: (§1) First, vector cloning was performed by synthesizing a DNA sequence for expressing each peptide belonging to the library constructed in Example 1. Vector cloning was performed using p3/p8 phagemids.
# (§2) After the fourth round, the remaining phages were obtained by binding to the finally immobilized target proteins, and peptide sequences binding to the target and the relative distribution of each sequence were confirmed by performing NGS analysis on phagemids in the phages.
# human MAL = test: Phage display screening of TIR domain-derived peptide library against immobilized MAL, NGS analysis after four rounds; assay type: binding; settings: for NGS count: phages remaining after fourth round
# Procedure: as §1, §2
# [1] = P3_MyD88: library displayed on P3 coat protein
# [2] = P3_MyD88: relative distribution of the sequence in NGS
# [3] = P8_MAL: library displayed on P8 coat protein
# [4] = P3_MAL: library displayed on P3 coat protein
# [5] = P3_MAL: relative distribution of the sequence in NGS
# [6] = P8_MyD88: library displayed on P8 coat protein
# [7] = P8_MyD88: relative distribution of the sequence in NGS
# [8] = P8_MAL: relative distribution of the sequence in NGS
sequence,measurement,setting,value
AVDKETDKIQTPLKNA,NGS count,human MYD88; [1],4790
same,Population,human MYD88; [2],1.39%
AYANFRQGLLRLLELA,NGS count,human MAL; [3],466
DWFLSKLSQHILKREK,NGS count,human MAL; [4],4580
same,Population,human MAL; [5],1.72%
YYLDPSHLRKQSGEFG,NGS count,human MYD88; [1],2538
same,Population,human MYD88; [2],0.74%
WDFASNMEQFWDRLYY,NGS count,human MYD88; [6],7352
same,Population,human MYD88; [7],2.83%
WALDELLQILHARELF,NGS count,human MYD88; [6],14404
same,Population,human MYD88; [7],5.55%
VQWDDPWFWDKLAYAM,NGS count,human MYD88; [6],4902
same,Population,human MYD88; [7],1.89%
PNLRTKVLNYLMRTKT,NGS count,human MAL; [4],26931
same,Population,human MAL; [5],10.12%
TSHLHHALRLNKIETF,NGS count,human MYD88; [1],2076
same,Population,human MYD88; [2],0.60%
AFLYTFLINLTHPTNF,NGS count,human MAL; [3],51063
same,Population,human MAL; [8],18.86%
YAASPWWFDELVKIVG,NGS count,human MYD88; [6],3433
same,Population,human MYD88; [7],1.32%
PSEVRKQTGSLAKAFA,NGS count,human MYD88; [1],2253
same,Population,human MYD88; [2],0.66%
MFGGDTFHDFLDLISM,NGS count,human MYD88; [6],1489
same,Population,human MYD88; [7],0.57%
RLLKWKEALHQFHSWV,NGS count,human MAL; [4],14924
same,Population,human MAL; [5],5.61%
DPQDLDWFYERLVSLF,NGS count,human MYD88; [6],54757
same,Population,human MYD88; [7],21.10%
YLISYIFNELARAGFS,NGS count,human MAL; [3],295
same,Population,human MAL; [8],0.09%
AWALHQLQQIINWHET,NGS count,human MAL; [3],232
same,Population,human MAL; [8],0.07%
SPQEQDGFWVRLIEAL,NGS count,human MYD88; [6],1842
same,Population,human MYD88; [7],0.71%
RNFVAYLFQALANKGI,NGS count,human MAL; [3],27950
same,Population,human MAL; [8],8.63%
SLRKNLVSNLIEEFKR,NGS count,human MAL; [4],3569
same,Population,human MAL; [5],1.34%
NQWRNALTAAANLSGW,NGS count,human MAL; [4],25831
same,Population,human MAL; [5],9.71%
same,NGS count,human MAL; [3],848
same,NGS count,human MYD88; [1],28662
same,Population,human MYD88; [2],8.35%
HHKGSYGEALAEHEKR,NGS count,human MAL; [4],3056
same,Population,human MAL; [5],1.15%
KEVEGWRDALTKVASL,NGS count,human MAL; [4],3758
same,Population,human MAL; [5],1.41%
same,NGS count,human MYD88; [1],5187
same,Population,human MYD88; [2],1.80%
YAFTGHLHRYLVQRGV,NGS count,human MAL; [4],43764
same,Population,human MAL; [5],16.44%
same,NGS count,human MYD88; [1],13420
same,Population,human MYD88; [2],3.91%
SEFIQKIILWMNPKIV,NGS count,human MAL; [3],4458
same,Population,human MAL; [8],1.38%
NELVHVWSSKANSLVG,NGS count,human MAL; [4],1836
same,Population,human MAL; [5],0.69%
same,NGS count,human MYD88; [1],8816
same,Population,human MYD88; [2],2.57%
WALQELVKILQAKIFL,NGS count,human MAL; [3],227
same,Population,human MAL; [8],0.07%
WFLTAFRMAMDQVADT,NGS count,human MAL; [3],353
SAAYDDFWDRLIRMIE,NGS count,human MYD88; [6],5335
same,Population,human MYD88; [7],2.06%
YASYDDNDYYWVTHVLLRHL,NGS count,human MYD88; [6],5893
same,Population,human MYD88; [7],2.66%
GFLYQAFAREGFKIFM,NGS count,human MAL; [4],1764
same,Population,human MAL; [5],0.66%
same,NGS count,human MYD88; [1],2579
same,Population,human MYD88; [2],0.75%
YLLLSVFQTIFARRTE,NGS count,human MYD88; [6],7165
same,Population,human MYD88; [7],2.76%
WALDELLKILYANETM,NGS count,human MYD88; [6],10515
same,Population,human MYD88; [7],4.05%
RGFLSHLRHHLQAKDH,NGS count,human MAL; [4],15065
same,Population,human MAL; [5],5.66%
DWVWDYLLPNLEGPAG,NGS count,human MYD88; [6],19394
same,Population,human MYD88; [7],7.47%
EWIREQLRPALKERLP,NGS count,human MAL; [4],2354
same,Population,human MAL; [5],0.88%
same,NGS count,human MYD88; [1],16821
same,Population,human MYD88; [2],4.90%
YNFISHLYDALHRNRI,NGS count,human MAL; [4],2678
same,Population,human MAL; [5],1.01%
same,NGS count,human MYD88; [1],2891
same,Population,human MYD88; [2],0.84%
YTALTNSGFHTFRDND,NGS count,human MYD88; [1],17600
same,Population,human MYD88; [2],5.12%
RKGDLISDELLIAIEE,NGS count,human MYD88; [1],2452
same,Population,human MYD88; [2],0.71%
LEANDSLFWDRLLYSL,NGS count,human MYD88; [6],1465
same,Population,human MYD88; [7],0.56%
LGYHWIDWEYFVGIED,NGS count,human MYD88; [6],25216
same,Population,human MYD88; [7],9.72%
HLLKEFDKKLITAFKD,NGS count,human MYD88; [1],2399
same,Population,human MYD88; [2],0.70%
LFFWESLKQLLRSDGR,NGS count,human MAL; [3],22560
same,Population,human MAL; [8],5.97%
LQNQWKLALTKVANLV,NGS count,human MAL; [4],2285
same,Population,human MAL; [5],0.86%
SFFWNKLRYHLPAPQH,NGS count,human MAL; [4],2297
same,Population,human MAL; [5],0.86%
HFFWIQLKSILGETSF,NGS count,human MAL; [3],3624
same,Population,human MAL; [8],1.12%
DYASSTWWLRELLQIA,NGS count,human MYD88; [6],4111
same,Population,human MYD88; [7],1.58%
YFLHFLLFSRPETEYI,NGS count,human MAL; [3],17198
same,Population,human MAL; [8],5.31%
WFMMKFRTVLDHVNDV,NGS count,human MAL; [3],2269
DPQDLQWFYERLVSLI,NGS count,human MYD88; [6],5730
same,Population,human MYD88; [7],2.21%
WFYERLVSLILRDTKV,NGS count,human MAL; [3],79000
same,Population,human MAL; [8],24.40%
DSLFWDRLLYSLHVTE,NGS count,human MYD88; [6],7586
same,Population,human MYD88; [7],2.92%
RNNFIGHLYQALYRIG,NGS count,human MAL; [3],3120
same,Population,human MAL; [8],0.96%
KMQKWKDALYEAANLS,NGS count,human MAL; [4],4427
same,Population,human MAL; [5],1.66%
KWFWDKLIYALSRNPH,NGS count,human MAL; [4],2796
same,Population,human MAL; [5],1.05%
DFLNWFIALKSTVIEN,NGS count,human MAL; [3],867
DPQDLEWFYERLFSQM,NGS count,human MYD88; [6],4488
same,Population,human MYD88; [7],1.73%
YASSSWALDELLRILY,NGS count,human MYD88; [6],2327
same,Population,human MYD88; [7],0.90%
GLSWGPYEWWMGLYDA,NGS count,human MYD88; [6],1965
same,Population,human MYD88; [7],0.76%
HWIDWEYFVGIEDHIK,NGS count,human MYD88; [6],3422
same,Population,human MYD88; [7],1.32%
HQAFWNRLWAKLKPPT,NGS count,human MAL; [4],1932
same,Population,human MAL; [5],0.73%
SELRVVDDGSVSPLEM,NGS count,human MYD88; [1],4872
same,Population,human MYD88; [2],1.42%
PQDLEWFYERLVSLIL,NGS count,human MYD88; [6],10568
same,Population,human MYD88; [7],4.07%
AFFWAQLKSVLGNPTM,NGS count,human MAL; [3],28801
same,Population,human MAL; [8],8.90%
WFLFTVRSAIYAMSPA,NGS count,human MAL; [3],3156
same,Population,human MAL; [8],0.97%
DWVWEHFFPMEEKDQT,NGS count,human MYD88; [6],1538
same,Population,human MYD88; [7],0.59%
KLFWEKFKEFFLPSLSR,NGS count,human MAL; [3],4888
same,Population,human MAL; [8],1.51%
AFFWEQLRTVLGKPTM,NGS count,human MAL; [3],11826
same,Population,human MAL; [8],3.65%
KLIQGWFLYRLLKIEQ,NGS count,human MAL; [3],2068
KFIWDIINAISSQIRV,NGS count,human MAL; [3],146
SENYATSPWALDELVL,NGS count,human MYD88; [1],5494
same,Population,human MYD88; [2],1.89%
PEKDNGGENAFINNIV,NGS count,human MYD88; [1],2498
same,Population,human MYD88; [2],0.73%
FLSYRALEKRFGPIGQ,NGS count,human MYD88; [1],3289
same,Population,human MYD88; [2],0.96%
FLNFRGLDVRNYFLGH,NGS count,human MAL; [4],2855
same,Population,human MAL; [5],1.07%
DPQDLDWFYERLVSLL,NGS count,human MYD88; [6],13137
same,Population,human MYD88; [7],5.06%
SLLYDHLRWLGIRAFL,NGS count,human MAL; [3],2576
same,Population,human MAL; [8],0.80%
TFLGHLYNALVQAGIH,NGS count,human MAL; [3],24732
same,Population,human MAL; [8],7.64%
IDDDHLTYLVRLLLSR,NGS count,human MYD88; [6],3059
same,Population,human MYD88; [7],1.18%
VANILGYHWIDWEYFV,NGS count,human MYD88; [6],2029
same,Population,human MYD88; [7],0.78%
FTLAVHVRNWLVGGFI,NGS count,human MAL; [3],520
VEPTQVRKQSGAVENA,NGS count,human MAL; [4],2283
same,Population,human MAL; [5],0.86%
YLRADDSWFWEKLLYA,NGS count,human MYD88; [6],4067
same,Population,human MYD88; [7],1.57%
NGHESEIIKEIVDTIV,NGS count,human MYD88; [1],4233
same,Population,human MYD88; [2],1.23%
